{"source": "patent US20100136541A1", "about": "“IDENTIFICATION AND VERIFICATION OF METHYLATION MARKER SEQUENCES” (Siemens Healthcare Diagnostics Inc., priority 2003, published 2010)", "assay_in_all_cases": "Affymetrix expression profiling of treated and untreated cell lines (restoration of gene expression)", "type_in_all_cases": "cell-based, human", "key": {"[1]": {"system": "CA4", "conditions": "cell line LS174T, treated vs untreated", "description": "(§1) Twenty well characterized, microdissected samples of colorectal cancer tissue were obtained from consenting patients. A second set of twenty, microdissected samples of normal adjacent colon tissue were also obtained. Total RNA was extracted from these samples using RNeasy kits (QIAGEN, Valencia, Calif.) according to the manufacturer's instructions. Expression profiling was performed using the GeneChip expression arrays from Affymetrix (Santa Clara, Calif.). Reverse transcription, second-strand synthesis, and probe generation was accomplished by standard Affymetrix protocols. The Human Genome U133A GeneChip, which contains more than 15,000 substantiated human genes, was hybridized, washed, and scanned according to Affymetrix protocols. Changes in cellular mRNA levels in the cancerous tissues were compared with mRNA levels in the normal colon tissues. GeneSpring v4.2 (Silicon Genetics, Redwood City, Calif.) was used to normalize and scale results and compare gene expression levels in the cancer tissue relative to that in the normal tissue.\n(§2) Further support for the clinical importance of these sites comes from the changes seen in gene expression of the genes after treatment of cell lines with 5-aza-2′-deoxyctyidine. These values were obtained from Affymetrix expression profiling of treated and untreated cell lines using the procedure described above."}, "[2]": {"system": "GPX3", "conditions": "cell line LS174T, treated vs untreated", "description": "as §1, §2"}, "[3]": {"system": "SCNN1B", "conditions": "cell line LS123, treated vs untreated", "description": "as §1, §2"}}}
{"smiles": "Nc1ncn([C@H]2C[C@H](O)[C@@H](CO)O2)c(=O)n1", "note": "[5-aza-2′-deoxycytidine]", "values": [{"measurement": "restoration of gene expression of CA4 after treatment", "setting": "[1]", "result": 2.8, "unit": "fold"}, {"measurement": "restoration of gene expression of GPX3 after treatment", "setting": "[2]", "result": 8.5, "unit": "fold"}, {"measurement": "restoration of gene expression of SCNN1B after treatment", "setting": "[3]", "result": 4.1, "unit": "fold"}]}
